Measurements reported in patent publication US8415095B2, “Use of nucleoside derivatives comprising a citrate group for the production of antibodies having an affinity for triphosphorylated nucleosides” (Centre National de la Recherche-Scientifique-CNRS, priority 2003, dated 2013).
Several values for one entry are separate records, joined by “and”; a condition that tells them apart may be missing. Equal entries are not always repeated.

Key:
[1] = system: anti-isostere antibody of ddATP; test: Radioimmunological determination (RIA) of the specificity of the anti-isostere antibody of ddATP, tracer ddA-HS-K-125IY; set-up: species or system rabbit; details: concentration of non-tagged antigen which inhibits 50% of the antigen-antibody binding
Source text: The polyclonal antibodies were produced in the rabbit, according to standard methods.
The antibodies having an affinity for the ddNTP derivatives can be identified by immunological techniques either by means of immunoenzymatic determinations or by means of radioimmunological determinations (RIA).
The specificity of these antibodies was studied in relation to different analogues of ddATP.

blood monocyte cells = test: In vitro cell model: blood monocyte cells incubated with ddI, RIA of supernatant ddI and intracellular ddATP after Sep Pak anionic cartridge; type: in vitro ADME, human; details: for Intracellular content in ddATP eq. (pmoles/10^6) cells: fractions 32-37
Procedure: Separation by anionic chromatography of the different phosphorylated metabolites stemming from the cellular metabolism of the ddI (ddIMP, ddAMP, ddADP and ddATP) was performed on Sep Pak anionic cartridge by means of a stepwise gradient using different concentrations of KCl (6 ml KCl 50 mM, 10 ml KCl 100 mM and 6 ml KCl 250 mM).
A certain number of controls were performed on an in vitro cell model. After separation by density gradient on Ficoll, the blood monocyte cells were incubated with different concentrations of ddI in the RPMI (at the level of 5×10^5 cells per ml).
The immunoreactivity present in the supernatant was expressed in equivalents (eq.) ddI established in relation to a ddI reference curve, and illustrated in Table 2 below. The ddATP immunoreactivity corresponds to the sum of the immunoreactivities present in the fractions 32-37 stemming from the separation of the intracellular contents on Sep Pak anionic cartridge. The immunoreactivity was expressed in ddATP equivalents in relation to a ddATP reference curve, and is also illustrated in Table 2 below.
The nature of the immunoreactive material present in the culture supernatant and in the intracellular medium was controlled by chromatography on a Sep Pak anionic cartridge. and detected by radioimmunological quantitation. […] This is shown in attached FIG. 2.

[2] = human, in vivo
Procedure: Blood samples were collected from patients infected with HIV-1 and undergoing treatment comprising administration of ddI. The patients were under the supervision of Professor P. Dellamonica at the Archet Hospital in Nice. The blood samples were collected using cell preparation tubes (CPT) at the rate of two 4-ml tubes for each of the 4 patients participating in this study. Quantification of the ddI in the plasma was performed for each patient and expressed in ddI equivalents. Intracellular quantification of ddATP was performed after chromatography (on Sep Pak anionic cartridge) of the cellular lysates. For each fraction (500 μl), the cellular content of ddATP was determined directly and expressed in ddATP equivalents; quantification was then performed after dephosphorylation and expressed in ddA equivalents.

| SMILES | IC50 [1] [µM] | also measured |
| --- | --- | --- |
| Nc1ccn(C2CSC(CO)O2)c(=O)n1 (centres unmarked) [3TC, 2′,3′-dideoxyo-3′-thiacytidine] | 200 | – |
| Nc1ncnc2c1ncn2[C@@H]1O[C@H](COP(=O)(O)OP(=O)(O)O)[C@@H](O)[C@H]1O [ADP] | > 1000 | – |
| Nc1ncnc2c1ncn2[C@@H]1O[C@H](COP(=O)(O)O)[C@@H](O)[C@H]1O [AMP] | > 1000 | – |
| Nc1ncnc2c1ncn2[C@@H]1O[C@H](COP(=O)(O)OP(=O)(O)OP(=O)(O)O)[C@@H](O)[C@H]1O [ATP] | 36 | – |
| Nc1ncnc2nc[nH]c12 [adenine] | 9 | – |
| Nc1ncnc2c1ncn2[C@@H]1O[C@H](CO)[C@@H](O)[C@H]1O [adenosine] | 2.4 | – |
| Nc1ncnc2c1ncn2C1CC(O)C(CO)O1 (centres unmarked) [dA] | 0.3 | – |
| Nc1ncnc2c1ncn2[C@H]1CC[C@@H](CO)O1 [ddA, 2′,3′-dideoxyadenosine] | 0.0004 | – |
| Nc1ncnc2c1ncn2[C@H]1CC[C@@H](COP(=O)(O)OP(=O)(O)OP(=O)(O)O)O1 [ddATP, 2′,3′-didesoxyadenosine-5′-triphosphate] | 0.0011 | – |
| Nc1ccn([C@H]2CC[C@@H](CO)O2)c(=O)n1 [ddC] | > 1000 | – |
| O=c1[nH]cnc2c1ncn2[C@H]1CC[C@@H](CO)O1 [ddI] | 0.002 | intracellular immunoreactive content eluted in the elution volume of ddATP (yield) (blood monocyte cells; Sep Pak anionic cartridge): 92%; share of supernatant immunoreactivity in fractions 1 to 5 (elution volume of ddI) (blood monocyte cells; culture supernatants n=4, Sep Pak anionic cartridge): 100%; Concentration of ddI of the supernatant in ddI eq. (blood monocyte cells; incubated ddI 1 × 10^−4 M): 130 µM and 150 µM; Concentration of ddI of the supernatant in ddI eq. (M) (blood monocyte cells; incubated ddI 1 × 10^−5 M): 3.8 ± 0.34 × 10^−5 (n = 2) M; Intracellular content in ddATP eq. (pmoles/10^6) cells (blood monocyte cells; incubated ddI 1 × 10^−5 M): 10.4 ± 0.6 (n = 2) pmoles/10^6 cells; Concentration of ddI of the supernatant in ddI eq. (M) (blood monocyte cells; incubated ddI 1 × 10^−7 M): 2.74 × 10^−7 (n = 1) M; Intracellular content in ddATP eq. (pmoles/10^6) cells (blood monocyte cells; incubated ddI 1 × 10^−7 M): 0.15 (n = 1) pmoles/10^6 cells; Concentration of ddI of the supernatant in ddI eq. (M) (blood monocyte cells; incubated ddI 5 × 10^−6 M): 5.74 × 10^−6 (n = 1) M; Intracellular content in ddATP eq. (pmoles/10^6) cells (blood monocyte cells; incubated ddI 5 × 10^−6 M): 1.8 (n = 1) pmoles/10^6 cells; ddI in the cells (blood monocyte cells; no immunoreactive material at the retention time of ddI): not detectable; plasma concentrations [2]: 2-6×10^−6 |
| Nc1ncnc2c1ncn2C1CCC(COC(=O)CC(O)(CC(=O)O)C(=O)O)O1 (centres unmarked) [isostere of ddATP, 5′-O-(3,4-dicarboxy-3-hydroxy)butanoate-2′,3′-didesoxyadenosine] | 5.2e-05 | – |
